Results from US12263479B2, “Array microfluidic chip and method of antibiotic susceptibility testing” (MEDFLUID CO., LTD., priority 2021, dated 2025).
≈ marks a conversion by molar mass, not a printed value. Where two headings read alike, the source gives them in different places.

Columns and labels:
[1] = tested on: E. coli ATCC25922; assay: antibiotic susceptibility testing on the array microfluidic chip (redox indicator discoloration); format: cell-based, Escherichia coli; settings: for MIC: Escherichia coli, read-out: minimum inhibitory concentration (MIC)
From the text: (§1) In the present experiment, the array microfluidic chip of the present disclosure is used to perform the antibiotic susceptibility testing on Escherichia coli ATCC25922 (“E. coli ATCC25922” hereafter) and Staphylococcus aureus ATCC29213 (“S. aureus ATCC29213” hereafter) to three antibiotics, namely Amikacin, Gentamicin and Vancomycin.
(§2) In the experiment, the dried powders of Amikacin, Gentamicin or Vancomycin are respectively placed in different reaction wells of the array microfluidic chip with different contents, and then the array microfluidic chip is sealed and keeps refrigerated. Next, redox indicators with proper amounts are respectively added to the bacteria-containing mediums including E. coli ATCC25922 or S. aureus ATCC29213, and the bacteria-containing mediums are transported to different reaction wells of different array microfluidic chips and then mixed with the antibiotic powders with different contents thereof so as to form the reaction solutions including different concentrations of antibiotics.
Next, the array microfluidic chips are placed in the incubator and cultured at 37° C., and the antibiotic susceptibilities of E. coli ATCC25922 and S. aureus ATCC29213 to Amikacin, Gentamicin and Vancomycin are further assessed based on the discoloration of the reaction solutions. In detail, if E. coli ATCC25922 and S. aureus ATCC29213 can grow under the existence of a specific antibiotic with a particular concentration, the color of the reaction solution including the redox indicator will gradually change from blue to purple, and eventually to pink, and the discoloration can be observed on the array microfluidic chip directly. Therefore, the assessing time of the method of antibiotic susceptibility testing of the present disclosure can be greatly shortened.
Please refer to FIG. 10A, FIG. 10B, FIG. 10C and Table 2 simultaneously. […] Furthermore, in FIG. 10C, the far left one is the image of the independent well performed a negative control test, and it is noted that the testing result of the independent well is not shown in Table 2. […]

[2] = tested on: S. aureus ATCC29213; assay: as above; format: cell-based, Staphylococcus aureus; settings: 5 hours and 30 minutes
From the text: as §1, §2
Next, the array microfluidic chips are placed in the incubator and cultured at 37° C., and the antibiotic susceptibilities of E. coli ATCC25922 and S. aureus ATCC29213 to Amikacin, Gentamicin and Vancomycin are further assessed based on the discoloration of the reaction solutions. […]

[3] = tested on: E. coli ATCC25922; settings: cited from earlier work
[4] = tested on: S. aureus ATCC29213; settings: cited from earlier work

| Molecule | MIC ([1]; ATCC25922, array microfluidic chip, 37° C., 4 hours) [µg/mL] | MIC ([2]; Staphylococcus aureus, ATCC29213, 37° C., read-out: minimum inhibitory concentration) [µg/mL] | CLSI standard value MIC [3] | CLSI standard value MIC [4] | MIC ([1]; ATCC25922, 4 h) [µg/mL] | minimum inhibitory concentration (MIC) ([1]; array microfluidic chip, 37° C., 4 hours) [µg/mL] | minimum inhibitory concentration ([2]; 37° C.) [µg/mL] |
| --- | --- | --- | --- | --- | --- | --- | --- |
| NCC[C@H](O)C(=O)N[C@@H]1C[C@H](N)[C@@H](O[C@H]2O[C@H](CN)[C@@H](O)[C@H](O)[C@H]2O)[C@H](O)[C@H]1O[C@H]1O[C@H](CO)[C@@H](O)[C@H](N)[C@H]1O [Amikacin] | 1 (≈ 1.71 µM) | 1 (≈ 1.71 µM) | 0.5˜4 μg/mL | 1˜4 μg/mL |  |  |  |
| CN[C@H](CC(C)C)C(=O)N[C@H]1C(=O)N[C@@H](CC(N)=O)C(=O)N[C@H]2C(=O)N[C@H]3C(=O)N[C@H](C(=O)N[C@H](C(=O)O)c4cc(O)cc(O)c4-c4cc3ccc4O)[C@H](O)c3ccc(c(Cl)c3)Oc3cc2cc(c3O[C@@H]2O[C@H](CO)[C@@H](O)[C@H](O)[C@H]2O[C@H]2C[C@](C)(N)[C@H](O)[C@H](C)O2)Oc2ccc(cc2Cl)[C@H]1O [Vancomycin] |  |  | R-resistance | 0.5˜2 μg/mL | > 16 |  |  |
| Gentamicin |  |  | 0.251 µg/mL | 0.12˜1 μg/mL |  | 1 | 0.25 |
